Results published in the NIST ThermoML archive (doi:10.1016/j.tca.2015.06.017).

Experiment: xn = mol fraction of the nth substance listed
Conditions: 303.15 K, Liquid, Vibrating tube method

CC(C)CCl [1-chloro-2-methylpropane] + CCCCCCC
mass density [kg/m3]
Conditions	100 kPa	2000 kPa	5000 kPa	7000 kPa	10000 kPa	20000 kPa	30000 kPa	40000 kPa	50000 kPa
x2 = 0.0531	851.74	853.98	857.38	859.64	862.96	873	882.09	890.44	898.25
x2 = 0.1023	839.04	841.31	844.68	846.92	850.21	860.17	869.13	877.39	885.12
x2 = 0.2009	815.06	817.39	820.73	822.92	826.15	835.94	844.8	852.91	–
x2 = 0.3009	792.69	794.98	798.27	800.42	803.62	813.23	821.91	829.87	–
x2 = 0.3981	772.58	774.81	778.06	780.18	783.33	792.77	801.3	809.15	–
x2 = 0.4986	753.31	755.48	758.67	760.74	763.84	773.13	781.52	789.24	–
x2 = 0.5998	735.29	737.44	740.59	742.6	745.64	754.8	763.03	770.61	–
x2 = 0.7038	718.11	720.22	723.33	725.32	728.31	737.29	745.43	752.83	–
x2 = 0.7993	703.45	705.49	708.59	710.55	713.5	722.32	730.33	737.59	–
x2 = 0.8995	689.05	691.14	694.18	696.12	699.03	707.71	715.6	722.73	–
x2 = 0.9507	682.07	684.19	687.22	689.13	692.03	700.65	708.5	715.55	–
